Literature values in patent publication US20100143322A1, “USE OF INHIBITORS OF N-METHYL TRANSFERASES FOR THE THERAPY OF PARKINSON'S DISEASE” (priority 2005, published 2010).

Biological target: T1, phenylethanolamine N-methyl transferase (PNMT) (Homo sapiens, UniProt P11086)
T1 sequence (P11086 1-282): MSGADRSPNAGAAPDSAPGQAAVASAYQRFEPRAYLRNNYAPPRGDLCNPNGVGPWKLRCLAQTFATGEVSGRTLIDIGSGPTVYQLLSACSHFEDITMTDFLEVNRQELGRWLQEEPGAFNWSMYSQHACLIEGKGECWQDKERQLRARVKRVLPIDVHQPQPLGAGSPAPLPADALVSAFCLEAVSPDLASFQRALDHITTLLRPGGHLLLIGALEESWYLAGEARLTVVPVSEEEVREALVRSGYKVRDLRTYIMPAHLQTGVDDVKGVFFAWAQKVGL
Settings: less than 2 mg of Ala-Cys-Cys, isolated from rabbit liver and purified

For Ala-Cys-Cys, the “inhibition of the PNMT in the PNMT test” value is given as over 90%.
